Marks after values point to notes of the source that are not given here.
Key:
mouse model = settings: cited from earlier work
[1] = tested on: spleen tissue from EAE mice; assay: Quantitative RT-PCR on spleen tissue of EAE mice; format: in vivo; settings: TSA-treated EAE mice
Description: (§1) FIG. 8—Identification of gene expression changes induced by HDAC inhibitors in vivo, using reverse transcriptase polymerase chain reaction (RT-PCR). CNS and spleen tissue samples from EAE mice were used to isolate RNA. One step real time quantitative RT-PCR (QRT-PCR) was then performed in triplicate for each sample (n=3 per group of mice) with SYBR Green and an ABI Prism 7700 Sequence Detection System (PE Applied Biosystems, Foster City, Calif.).
(§2) d) Quantitative RT-PCR (QRT-PCR) on CNS and spleen tissues from TSA-treated EAE mice detects numerous genes modulated by this HDAC inhibitor. […] QRT-PCR unveiled new CNS effects of TSA (FIG. 8), including upregulation of the neuronal trait genes sodium channel Nav1.2 and dopamine β hydroxylase (Dbh), and downregulation of the pro-apoptotic factors caspase 2 (casp2) and apoptosis inducing factor (Aif). In spleen tissues, QRT-PCR confirmed elevation of Ifna7 and Adipsin and downregulation of Igκ V22 mRNAs, and unveiled downregulation by TSA of multiple inflammatory factors, such as IL-8 receptor, IL-2 receptor, IL-12, and the costimulatory molecule CD28, from pathways implicated in MS (Glabinsk and Ransohoff, 2001; Dangond, 2002).

[2] = tested on: experimental autoimmune encephalomyelitis (EAE) in mice; assay: MOG-induced EAE in mice, clinical disability scoring; format: in vivo, C57BL/6 female mice; settings: for EAE clinical disability: TSA 7.5 mg/kg/dose/d i.p., apparent in the chronic (days 20-40) phase
Text: FIG. 1—Efficacy of HDAC inhibitor treatment in reducing the clinical manifestations of experimental autoimmune encephalomyelitis (EAE) in mice. Mean clinical scores reflect reduced clinical disability by TSA in the neurodegenerative phase of EAE (● TSA-treated; ◯ vehicle-treated) (*P<0.05 by Fisher's protected least significant difference (PLSD) test). The remission phase lasted from days 19 to 34 following disease induction in a first experiment, days 21 to 32 in a second experiment. Animals were scored for signs of disability using the following widely used scale: 1, limp tail or isolated weakness of gait without limp tail; 2, partial hind leg paralysis; 3, total hind leg or partial hind and front leg paralysis and/or urinary incontinence; 4, total hind leg and partial front leg paralysis; 5, moribund or dead animal (with minor modifications from Issazadeh et al. (1998)). The definitions used were: (1) mean peak remission: mean of maximal score reached during remission, and (2) mean % days of severity: mean % of days with scores ≧2.
Experimental autoimmune encephalomyelitis (EAE) is the most widely accepted animal model for multiple sclerosis. […] Medications that currently modify the disease course in humans also modify the disease course in the animal model. The inventor has used the C57BL/6J mice (female mice 6-8 weeks old from Jackson Laboratories) for the experiments, which involve the administration of myelin oligodendrocyte glycoprotein (MOG), a myelin antigen, that induces autoimmunity against the brain tissue. EAE can also be induced in laboratory mice and rats using other myelin antigens.
Efficacy of HDAC inhibitor treatment in reducing the clinical manifestations of experimental autoimmune encephalomyelitis (EAE) in mice. The inventor injected 6-8 week-old C57BL/6 female mice (Jackson Laboratories, Bar Harbor, Me.) subcutaneously with 150 μg myelin oligodendrocyte glycoprotein (MOG)35-55 peptide (Quality Controlled Biochemicals, Hopkinton, Mass.) in PBS and CFA containing 0.4 mg of Mycobacterium tuberculosis (H37Ra, Difco, Detroit, Mich.), and i.p. on days 1 and 3 with 200 ng Pertussis (List Biological, Campbell, Calif.). TSA (7.5 mg/kg/dose/d i.p.) (Biomol, Plymouth Meeting, Pa. and Wako, Richmond, Va.) in PBS (9):DMSO (1) vehicle was begun on day 4. Ten mice were given vehicle and 9 were given TSA in a first experiment, wherease a second experiment utilized 15 per group.

CNS tissue from EAE mice = assay: Quantitative RT-PCR on CNS tissue of EAE mice; format: in vivo
Description: as §1, §2

Structure (SMILES): CC(/C=C/C(=O)NO)=C\[C@@H](C)C(=O)c1ccc(N(C)C)cc1 [TSA, Trichostatin A]
- immunosuppression (mouse model): induces immunosuppression
- Adipsin mRNA by QRT-PCR [1]: elevation
- CD28 mRNA by QRT-PCR [1]: downregulation
- IL-2 receptor mRNA by QRT-PCR [1]: downregulation
- IL-8 receptor mRNA by QRT-PCR [1]: downregulation
- IL-12 mRNA by QRT-PCR [1]: downregulation
- Ifna7 mRNA by QRT-PCR [1]: elevation
- Igκ V22 mRNA by QRT-PCR [1]: downregulation
- Mean % Days of Severity (mean % of days with scores ≧2) ([2]; TSA 7.5 mg/kg/dose/d i.p. from day 4, P = 0.0011 vs vehicle): 33.9 ± 4.3** %
- Days of Onset (Clinical EAE) ([2]; TSA 7.5 mg/kg/dose/d i.p. from day 4, two separate exp. pooled): 13 ± 0.5 days
- EAE clinical disability [2]: decrease in EAE clinical disability
- EAE clinical disability ([2]; listed as Trichostatin A): effective in reducing EAE in mice
- Mean Peak Remission Phase (mean of maximal score reached during remission) ([2]; clinical score scale 1-5, TSA 7.5 mg/kg/dose/d i.p. from day 4, P = 0.0036 vs vehicle): 1.8 ± 0.1*
- fold change of key genes altered, QRT-PCR (CNS tissue from EAE mice; CNS and spleen samples, vs vehicle-treated EAE animals, n=3 per group): > 1.5 fold
- Gpx1 mRNA by QRT-PCR (CNS tissue from EAE mice; CNS, TSA-treated EAE mice): elevated
- Ifna2 mRNA by QRT-PCR (CNS tissue from EAE mice; CNS, TSA-treated EAE mice): elevated
- Mug mRNA by QRT-PCR (CNS tissue from EAE mice; CNS, TSA-treated EAE mice): downregulated
- Tmpo mRNA by QRT-PCR (CNS tissue from EAE mice; CNS, TSA-treated EAE mice): downregulated
- apoptosis inducing factor (Aif) mRNA by QRT-PCR (CNS tissue from EAE mice; CNS, TSA-treated EAE mice): downregulation
- caspase 2 (casp2) mRNA by QRT-PCR (CNS tissue from EAE mice; CNS, TSA-treated EAE mice): downregulation
- dopamine β hydroxylase (Dbh) mRNA by QRT-PCR (CNS tissue from EAE mice; CNS, TSA-treated EAE mice): upregulation
- sodium channel Nav1.2 mRNA by QRT-PCR (CNS tissue from EAE mice; CNS, TSA-treated EAE mice): upregulation
- thromboxane A2 receptor (Tbxa2r) mRNA by QRT-PCR (CNS tissue from EAE mice; CNS, TSA-treated EAE mice): downregulated

Reference: patent US20040077591A1, “Histone deacetylase inhibitors for the treatment of multiple sclerosis, amyotrophic lateral sclerosis and Alzheimer's Disease” (The Brigham and Women's Hospital, Inc., priority 2002, published 2004)
